Test results reported in patent US20220265817A1, “THERAPEUTIC COMPOSITIONS AND METHODS FOR TREATING HEPATITIS B” (priority 2017, published 2022).
“And” between values parts separate entries of the source, which are not always exact repeats. Equal values may be shown once. Read-outs that look alike come from different tables or passages of the source.

What was measured:
[1] = tested on: D type HBV in primary human hepatocytes; test: microbe, parasite or virus in culture; assay type: cell-based; conditions: for EC50: PHH
Experimental: (§1) The mouse liver perfusion was applied to isolate PHHs. The isolated hepatocytes were further purified by Percoll. The cells were resuspended with culture media and seeded into the 96-well plates (6×10^4 cell/well) or 48-well plates (1.2×10^5 cell/well). The PHHs were infected with a D type HBV one day post seeding (day 1).
(§2) On day 2, the test compounds were diluted and added into the cell culture plates. The culture media containing the compounds were refreshed every other day. The cell culture supernatants were collected on day 8 for the HBV DNA and antigen determinations.
(§3) The compounds were tested at 7 concentrations, 3-fold dilution, in triplicate.
(§4) Two compounds were tested at 5×5 matrix, in triplicate plates.
DNA in the culture supernatants harvested on days 8 were isolated with QIAamp 96 DNA Blood Kit (Qiagen-51161). For each sample, 100 μl of the culture supernatants was used to extract DNA. The DNA was eluted with 100 μl, 150 μl or 180 μl of AE. HBV DNA in the culture supernatants was quantified by qPCR. The combination effect was analyzed by the MacSynergy software. The primers are described below.

[2] = tested on: D type HBV in primary human hepatocytes (HBsAg); test: microbe, parasite or virus in culture; assay type: cell-based
Experimental: as §1, §2, §3, §4
(§5) HBsAg/HBeAg in the culture supernatants harvested on days 8 were measured by the HBsAg/HBeAg ELISA kit (Autobio) according to the manual. The samples were diluted with PBS to get the signal in the range of the standard curve. The inhibition rates were calculated with the formula below. The combination effect was analyzed by the MacSynergy software.
% Inh. HBsAg=[1-HBsAg quantity of sample/HBV quantity of DMSO control]×100.

[3] = tested on: D type HBV in primary human hepatocytes (HBeAg); test: microbe, parasite or virus in culture; assay type: cell-based
Experimental: as §1, §2, §3, §4, §5
% Inh. HBeAg=[1-HBeAg quantity of sample/HBV quantity of DMSO control]×100.

[4] = tested on: HBV rcDNA in HepDE19 cells; test: HepDE19 cell culture system, rcDNA quantitation using bDNA assay, MacSynergy II; assay type: cell-based, human hepatoma cell line; conditions: for AVERAGE % INHIBITION: COMPOUND 3 0.000 μM
Experimental: In vitro combination studies were conducted using the method of Prichard and Shipman (Prichard M N, and Shipman C Jr., Antiviral Research, 1990, 14 (4-5), 181-205; and Prichard M N, et. al., MacSynergy II). HepDE19 cell culture system is a HepG2 (human hepatocarcinoma) derived cell line that supports HBV DNA replication and cccDNA formation in a tetracycline (Tet)-regulated manner and produces HBV rcDNA and a detectable reporter molecule dependent on the production and maintenance of cccDNA (Guo et al 2007. J. Virol 81:12472-12484). HepDE19 (50,000 cells/well) were plated in 96 well collagen-coated tissue-culture treated microtiter plates in DMEM/F12 medium supplemented with 10% fetal bovine serum, 1% penicillin-streptomycin and 1 μg/ml tetracycline and incubated in a humidified incubator at 37° C. and 5% CO2 overnight. Next day, the cells were switched to fresh medium without tetracycline and incubated for 4 hrs at 37° C. and 5% CO2. […] The two inhibitors were tested both singly as well as in combinations in a checkerboard fashion such that each concentration of inhibitor A was combined with each concentration of inhibitor B to determine their combination effects on inhibition of rcDNA production. Following a 7 day-incubation of cells with compound combinations, the level of rcDNA present in the inhibitor-treated wells was measured using a Quantigene 2.0 bDNA assay kit (Affymetrix, Santa Clara, Calif.) with HBV specific custom probe set and manufacturers instructions. […] The RLU data from the single compound treated cells were analyzed using XL-Fit module in Microsoft Excel to determine EC50 values using a 4-parameter curve fitting algorithm. Concurrently, the effect of compounds on cell viability was assessed using replicate plates, plated at a density of 5,000 cells/well and incubated for 4 days, to determine the ATP content as a measure of cell viability using the cell-titer glo reagent (CTG; Promega Corporation, Madison, Wis.) as per manufacturer's instructions.
In vitro combination studies were conducted using the method of Prichard and Shipman (Prichard M N, Shipman C, Jr., Antiviral Res, 14, 181-205 (1990)). The HepDE19 cell line was developed as described in Guo et al. (Guo et al., J Virol, 81, 12472-12484 (2007)). It is a human hepatoma cell line stably transfected with the HBV genome, and which can express HBV pregenomic RNA and support HBV rcDNA (relaxed circular DNA) synthesis in a tetracycline-regulated manner. HepDE19 cells were plated in 96 well tissue-culture treated microtiter plates in DMEM/F12 medium supplemented with 10% fetal bovine serum+1% penicillin-streptomycin without tetracycline and incubated in a humidified incubator at 37° C. and 5% CO2 overnight. […] The two inhibitors were tested both singly as well as in combinations in a checkerboard fashion such that each concentration of inhibitor A was combined with each concentration of inhibitor B to determine their combination effects on inhibition of rcDNA production. Following a 48 hour-incubation, the level of rcDNA present in the inhibitor-treated wells was measured using a bDNA assay (Affymetrix) with HBV specific custom probe set and manufacturers instructions. […] Concurrently, the effect of inhibitor combinations on cell viability was assessed using replicate plates that were used to determine the ATP content as a measure of cell viability using the Cell-TiterGlo reagent (Promega) as per manufacturer's instructions.
In vitro combination studies were conducted using the method of Prichard and Shipman (1990) (Prichard M N, Shipman C, Jr. 1990. A three-dimensional model to analyze drug-drug interactions. Antiviral Res 14:181-205 AND Prichard M N. 1992. MacSynergy II, University of Michigan).

[5] = Hepatitis B virus, Hepatocyte, 432 h, read-out: Inhibitor B EC50
[6] = Hepatitis B virus, Hepatocyte, 456 h, read-out: Inhibitor A EC50

`COCCCOc1cc2c(cc1OC)-c1cc(=O)c(C(=O)O)cn1C(C(C)C)C2` (stereo not drawn) [Compound 25] was tested, and the “AVERAGE % INHIBITION HBV DNA” value ([1]; COMPOUND 25 0.37 nM alone) was −51.8% and −46.48%, the “AVERAGE % INHIBITION HBV DNA” value ([1]; COMPOUND 25 3.33 nM alone) was 16.41% and the “AVERAGE % INHIBITION HBV DNA” value ([1]; COMPOUND 25 10.00 nM alone) was 37.39%. For the same molecule, the EC50 ([1]; Hepatitis B virus, Hepatocyte, 432 h, HBV DNA endpoint, determined in an earlier separate experiment (Table 18d), read-out: Inhibitor B EC50) was 0.654 nM, the EC50 ([1]; Hepatitis B virus, Hepatocyte, 456 h, HBV DNA endpoint, determined in an earlier separate experiment (Table 19d), read-out: Inhibitor A EC50) was 0.654 nM and the inhibition at 0.00333 µM ([1]; Hepatitis B virus, Hepatocyte, read-out: AVERAGE % […] DNA, COMPOUND 25 3.33 nM alone, read-out: AVERAGE % INHIBITION HBV DNA) was 15.2%. It also gave an inhibition at 0.01 µM ([1]; Hepatitis B virus, Hepatocyte, read-out: AVERAGE % […] DNA, COMPOUND 25 10.00 nM alone, read-out: AVERAGE % INHIBITION HBV DNA) of 28%, an inhibition at 0.12 µM ([1]; Hepatitis B virus, Hepatocyte, read-out: AVERAGE % […] DNA, compound 25 0.12 μM alone) of -14.4% and an inhibition at 0.37 µM ([1]; Hepatitis B virus, Hepatocyte, read-out: AVERAGE % […] DNA, compound 25 0.37 μM alone) of -9.87%. The inhibition at 3.33 µM ([1]; Hepatitis B virus, Hepatocyte, read-out: AVERAGE % […] DNA, compound 25 3.33 μM alone) was 32.6%, the inhibition at 10 µM ([1]; Hepatitis B virus, Hepatocyte, read-out: AVERAGE % […] DNA, compound 25 10.00 μM alone) was 53.8% and the EC50 ([1]; Hepatitis B virus, Hepatocyte, determined in an earlier separate experiment, read-out: Inhibitor A EC50 HBV DNA) was 0.653 nM. The “AVERAGE % INHIBITION (HBsAg)” value ([2]; COMPOUND 25 0.12 nM alone) was 3.68% and 9.32%, the “AVERAGE % INHIBITION (HBsAg)” value ([2]; COMPOUND 25 3.33 nM alone) was 20.81% and the “AVERAGE % INHIBITION (HBsAg)” value ([2]; COMPOUND 25 10.00 nM alone) was 42.95%. The EC50 [2, 5] was 4.5 nM, the EC50 [2, 6] was 4.5 nM and the inhibition at 0.12 µM ([2]; Hepatitis B virus, Hepatocyte, COMPOUND 25 0.12 μM alone) was -5.64%. The inhibition at 0.37 µM ([2]; Hepatitis B virus, Hepatocyte, COMPOUND 25 0.37 μM alone) was -7.52%, the inhibition at 0.00333 µM ([2]; Hepatitis B virus, Hepatocyte, read-out: AVERAGE % INHIBITION HBsAg, COMPOUND 25 3.33 nM alone) was 13.1% and the inhibition at 0.01 µM ([2]; Hepatitis B virus, Hepatocyte, read-out: AVERAGE % INHIBITION HBsAg, COMPOUND 25 10.00 nM alone) was 33%. For the same molecule, the inhibition at 3.33 µM ([2]; Hepatitis B virus, Hepatocyte, read-out: AVERAGE % INHIBITION HBsAg, COMPOUND 25 3.33 μM alone) was 8.81%, the inhibition at 10 µM ([2]; Hepatitis B virus, Hepatocyte, read-out: AVERAGE % INHIBITION HBsAg, COMPOUND 25 10.00 μM alone) was 42.5% and the EC50 ([2]; Hepatitis B virus, Hepatocyte, read-out: Inhibitor A EC50 HBsAg) was 4.5 nM. For the same molecule, the “AVERAGE % INHIBITION HBeAg” value ([3]; COMPOUND 25 0.12 nM alone) was 4.8%, the “AVERAGE % INHIBITION HBeAg” value ([3]; COMPOUND 25 0.37 nM alone) was −0.51% and 2.9% and the “AVERAGE % INHIBITION HBeAg” value ([3]; COMPOUND 25 3.33 nM alone) was 13.94%. For the same molecule, the “AVERAGE % INHIBITION HBeAg” value ([3]; COMPOUND 25 10.00 nM alone) was 28.42%, the EC50 [3, 5] was 5.75 nM and the EC50 [3, 6] was 5.75 nM. For the same molecule, the inhibition at 0.00012 µM ([3]; Hepatitis B virus, Hepatocyte, read-out: AVERAGE % INHIBITION HBeAg, COMPOUND 25 0.12 nM alone) was 5.33%, the inhibition at 0.00333 µM ([3]; Hepatitis B virus, Hepatocyte, read-out: AVERAGE % INHIBITION HBeAg, COMPOUND 25 3.33 nM alone) was 8.74% and the inhibition at 0.01 µM ([3]; Hepatitis B virus, Hepatocyte, read-out: AVERAGE % INHIBITION HBeAg, COMPOUND 25 10.00 nM alone) was 33.2%. The inhibition at 0.12 µM ([3]; Hepatitis B virus, Hepatocyte, read-out: AVERAGE % INHIBITION HBeAg, COMPOUND 25 0.12 μM alone) was -11.2%, the inhibition at 0.37 µM ([3]; Hepatitis B virus, Hepatocyte, read-out: AVERAGE % INHIBITION HBeAg, COMPOUND 25 0.37 μM alone) was -13.8% and the inhibition at 3.33 µM ([3]; Hepatitis B virus, Hepatocyte, read-out: AVERAGE % INHIBITION HBeAg, COMPOUND 25 3.33 μM alone) was -7.31%. The inhibition at 10 µM ([3]; Hepatitis B virus, Hepatocyte, read-out: AVERAGE % INHIBITION HBeAg, COMPOUND 25 10.00 μM alone) was 22% and the EC50 ([3]; Hepatitis B virus, Hepatocyte, read-out: Inhibitor A EC50 HBeAg) was 5.75 nM.

With `CCOC(=O)C1=C(CN2CCOCC2)NC(c2nccs2)=NC1c1ccc(F)cc1Br` (stereo not drawn) [GLS4] the “AVERAGE % INHIBITION” value ([4]; GLS-4 0.008 μM) was −1.17%, the “AVERAGE % INHIBITION” value ([4]; GLS-4 0.016 μM) was −5.82% and the “AVERAGE % INHIBITION” value ([4]; GLS-4 0.031 μM) was 7.03%. For the same molecule, the “AVERAGE % INHIBITION” value ([4]; GLS-4 0.063 μM) was 38.95%, the “AVERAGE % INHIBITION” value ([4]; GLS-4 0.125 μM) was 77.82% and the “AVERAGE % INHIBITION” value ([4]; GLS-4 0.250 μM) was 94.65%. The “AVERAGE % INHIBITION” value ([4]; GLS-4 0.500 μM) was 97.48%, the “AVERAGE % INHIBITION” value ([4]; GLS-4 1.000 μM) was 98.51% and the “AVERAGE % INHIBITION” value ([4]; GLS-4 2.000 μM) was 98.22%. The EC50 ([4]; rcDNA, bDNA assay, DE19 cells, read-out: Inhibitor B EC50) was 77 nM.
